Assay results as given in patent US20220362122A1, “Hair Treatment Compositions With Amine Derivatives” (ELC Management LLC, priority 2021, published 2022).
“Also recorded” adds a separate entry of the source.

Columns and labels:
[1] = alkalizer composition; 22° C., T-F spindle, 6 rpm
keratin in hair = assay: DSC analysis: keratin denaturation temperature of treated hair
[2] = Tensile strength: break stress of treated hair fibers; conditions: hair fibers after alkalizer composition + oxidant
[3] = alkalizer composition
[4] = pH of alkalizer composition
[5] = active component; cited from earlier work
[6] = single alkalizer compositions, Table 4A
[7] = single alkalizer compositions, Table 5

Viscosity (cP × 10^5) [1]: 2.77 cP × 10^5
Denaturation Temperature (° C.) (keratin in hair; single alkalizer composition + volume 40 (12%) oxidizer developer on hair tresses, 37° C., 45 minutes, virgin hair 150.42): 147.80 °C
ΔT (change in denaturation temperature) TVirgin-TAlkalizer (keratin in hair; [6]): 2.62
Alkalinity [3]: 2.32 mL/g
pH [4]: 10.58
SMILES: CN(C)CCCO [DMAP, 3-Dimethyl-amino-1-propanol]
hair damage / denaturation temperature, comparison in words (keratin in hair; DSC, single alkalizer compositions): performed the closest to ammonium hydroxide; also recorded: less damaging to hair than the ammonium hydroxide composition; also recorded: a better performer than ammonia
% Relative damage level compared to NaOH (TVirgin-TAlkalizer)/(TVirgin-TNaOH) (keratin in hair; [6]): 18.33%
Damage level normalized to NH3•H2O (keratin in hair; [6]): 0.94
break stress / fiber damage, comparison in words [2]: cause a similar amount of damage or less damage than their primary amine analogs
Lifting level normalized to NH3•H2O [7]: 0.53
Relative lifting level in percentage (LVirgin-LAlkalizer)/(LVirgin-LNaOH) [7]: 45.45%
ΔL (change in color lifting) LVirgin-LAlkalizer [7]: −8
lifting of natural hair color, comparison in words (single alkalizer/oxidizer mixtures): performed significantly less well than ammonium hydroxide
pKa [5]: 9.27
